Patent US20060127980A1, “Human excitatory amino acid transporter-2 gene promoter and uses thereof” (priority 2003, published 2006)

System: hEAAT2 promoter
Experiment: flhEAAT2Prom-luc and deletion mutant luciferase reporter assay in PHFA treated with modulators
Type: cell-based, human
Details: four day treatment
Protocol: FIG. 4A-D. Effect of modulators of hEAAT2 activity on hEAAT2 expression and hEAAT2 promoter activity in PHFA. A. A Northern analysis of hEAAT2 and GAPDH mRNA expression following treatment with EGF (30 ng/ml), TGF-α (30 ng/ml), dbcAMP (200 μM, bromo-cAMP (100 μM) or TNF-α (200 U/ml) for 7 days. B. Nuclear run-on assays determining the relative rates of hEAAT2 and GAPDH transcription as a function of 7-day treatment with the same concentrations of the indicated agents. C. A time course of mRNA expression of hEAAT2 and GAPDH following treatment with EGF, bromo-cAMP or TNF-α (same concentrations as in A.). D. Fold luciferase activity in PHFA transfected with flhEAAT2Prom-luc or various deletion mutants of hEAAT2 and non-transfected controls treated with the indicated compounds for four days.
Construction of hEAAT2 Promoter Deletion Mutants and Performance of the Luciferase Assays. 5′-deletion mutants of the hEAAT2 promoter were made with exonuclease III digestion using the Erase-A-Base System (Promega) as described for the PEG-3 promoter (Su et al., 2000, Oncogene 19(30):3411-3421). The flhEAAT2Prom-luc and flhEAAT2Prom-luc deletion mutants were cloned into the pGL3-basic luciferase reporter vector (Promega) and luciferase reporter assays were performed as described (Su et al., 2000, Oncogene 19(30):3411-3421; Su et al., 2001, Nucleic Acids Res 29(8):1661-1671), except that instead of using lipofectamine, which was toxic to PHFA, the calcium phosphate precipitation transfection technique was used (Babiss et al., 1986, Proc Natl Acad Sci USA 83(7):2167-2171).
Preferential Expression of the hEAAT2 Promoter in PHFA and Deletion Analysis of the hEAAT2 Promoter. hEAAT2 is expressed in brain-derived cells, mainly astrocytes (Tanaka et al., 1997, Science 276(5319):1699-1702; Anderson et al., 2000, Glia 32(1):1-14). Experiments were performed to confirm hEAAT2 promoter activity in normal human astrocytes and to determine expression levels in other cell types (FIG. 2A). Primary early passage and established human normal and tumor cell lines were co-transfected with a putative full-length ˜2.5 kb hEAAT2 promoter, a SacII fragment extending from bp −2426 to bp +44, was cloned into the pGL3-basic vector (Promega), where it drove expression of the firefly luciferase (luc) gene, and a pSV-β-galactosidase expression plasmid. Relative fold expression of a full length hEAAT2 promoter-luciferase (flhEAAT2Prom-luc) construct was determined as described (Su et al., 2000, Oncogene 19(30):3411-3421; Su et al., 2001, Nucleic Acids Res 29(8):1661-1671), and activity versus transfection with a pSV-β-galactosidase plasmid was calculated as described (Su et al., 2000, Oncogene 19(30):3411-3421; Su et al., 2001, Nucleic Acids Res 29(8):1661-1671) to equalize for differences in transfection efficiency.
To examine further the relationship between hEAAT2 and treatment with the various glutamate transporter modulators, transient transfection assays were performed in PHFA using the flhEAAT2Prom-luc constructs and various deletions thereof (FIG. 4D). […] In the case of dbcAMP, promoter activity was enhanced by ˜3-fold.

Q: With `CCCC(=O)Nc1ncnc2c1ncn2[C@@H]1O[C@@H]2COP(=O)(O)O[C@H]2[C@H]1OC(=O)CCC` [dbcAMP, dibutyryl cyclic AMP] as the molecule, how does the “stimulation of promoter activity after deletion of bp −2426 to bp −703” value (deletion mutant) read?
A: The value was “did not significantly decrease”.

Q: What about the “upregulation of promoter activity after deletion of bp −703 to bp −326” value (deletion mutant) of the same molecule?
A: Its value is “most relevant”.

Q: And the “upregulation of hEAAT2 promoter activity” value (flhEAAT2Prom-luc)?
A: The value was roughly 3 fold.
